Experimental findings from US20250179047A1, “5-[7-(3,4-DIHYDRO-1H-ISOQUINOLINE-2-CARBONYL)-1,2,3,4 TETRAHYDROISOQUINOLIN-6-YL]-1H-PYRROLE-3-CARBOXAMIDE DERIVATIVES, PHARMACEUTICAL COMPOSITIONS CONTAINING THEM AND THEIR USES AS PRO-APOPTOTIC AGENTS” (LES LABORATOIRES SERVIER, priority 2022, published 2025) are described below.

Holding throughout (format): cell-based
One experiment concerns KMS-12-PE Bcl-2 WT. Description: In vitro cytotoxicity CellTiter-Glo 48 h, KMS-12-PE Bcl-2 WT. Conditions: C50 = concentration needed to reach 50% of the cellular viability. The method in brief: (§1)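 KMS-12-PE myeloma cells were lentivirally transduced with wild-type or G101V-mutant Bcl-2 and sorted by TagRFP. They were exposed to compounds as 11-point dose responses for 48 h at 37 °C, 5% CO2. Viability was read by CellTiter-Glo ATP luminescence, and C50 was the concentration giving 50% viability.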
On the technique in general: Cellular ATP, detected with luciferase, serves as a proxy for viable cell number.

The subject of another experiment is KMS12PE Bcl2 D103E. Description: In vitro cytotoxicity CellTiterGlo 72 h, KMS12PE Bcl2 D103E. The note with it: Homo sapiens, KMS-12-PE, read-out: C50 nM, KMS12PE Bcl2 D103E. The method, then:
KMS-12-PE (ACC 606) were purchased from the Leibniz-Institute DSMZ (Braunschweig, Germany) and were grown at 37° C. in a humidified atmosphere with 5% CO2 in media recommended by the suppliers. Lentiviral particles containing Bcl-2 wild type (also named “Bcl2 WT”), Bcl-2 mutated on G101V (also named “Bcl2 G101V”), Bcl-2 mutated on D103Y (also named “Bcl2 D103Y”), Bcl-2 mutated on D103V (also named “Bcl2 D103V”), Bcl-2 mutated on D103E (also named “Bcl2 D103E”), Bcl-2 mutated on F104I (also named “Bcl2 F104I”), Bcl-2 mutated on F104L (also named “Bcl2 F104L”), Bcl-2 mutated on D111A (also named “Bcl2 D111A”), Bcl-2 mutated on A113G (also named “Bcl2 A113G”), Bcl-2 mutated on R129L (also named “Bcl2 R129L”), Bcl-2 mutated on V156D (also named “Bcl2 V156D”) were cloned into pcLV-CMV-DEST-IRES-TagRFP. Lentiviral particles (1×10^6) were mixed with Polybrene at 8 μg/ml and transduced by spinoculation for 1 h at 32° C. and incubated overnight. After 8 days, TagRFP positive-cells were sorted by FACS. BCL2 expression was monitored by immunoblotting using anti-Flag and anti-BCL2 antibodies. Cells were seeded into 96-wells plates and treated with 1:3.16 serial dilution of compounds (9 different concentrations). Cell viability was assessed using CellTiterGlo reagent following treatment for 72 h. Results were normalized to the viability of cells without compounds (control wells). The C50 values were calculated using nonlinear regression algorithms in XCell software.

The test system of the next experiment is KMS-12-PE Bcl-2 G101V. Description: In vitro cytotoxicity CellTiter-Glo 48 h, KMS-12-PE Bcl-2 G101V. Conditions: for Ratio (G101V/WT): C50 KMS-12-PE Bcl-2 G101V over C50 KMS-12-PE Bcl-2 WT; for IC50: 48 h, CellTiter-Glo, C50 = concentration needed to reach 50% of the cellular viability. The method in brief: as §1

For `Cc1c(N(C(=O)c2cc(-c3cc4c(cc3C(=O)N3Cc5ccccc5C[C@H]3C)CN(C(=O)Cc3ccc(N5CCN6CCOC[C@@H]6C5)cc3F)CC4)n(C)c2C)c2ccc(O)cc2)cc(C#N)n1C` [Example 45, 5-[2-(2-{4-[(9aS)-octahydropyrazino[2,1-c][1,4]oxazin-8-yl]-2-fluorophenyl}acetyl)-7-[(3R)-3-methyl-1,2,3,4-tetrahydroisoquinoline-2-carbonyl]-1,2,3,4-tetrahydroisoquinolin-6-yl]-N-(5-cyano-1,2-dimethyl-1H-pyrrol-3-yl)-N-(4-hydroxyphenyl)-1,2-dimethyl-1H-pyrrole-3-carboxamide], the IC50 was determined as 0.005 µM in the experiment on KMS-12-PE Bcl-2 WT (Homo sapiens, KMS-12-PE); 2.7 nM in the experiment with KMS12PE Bcl2 D103E; 0.0324 µM in the experiment on KMS-12-PE Bcl-2 G101V (Homo sapiens, KMS-12-PE). In addition, the “Ratio (G101V/WT)” value in the experiment with KMS-12-PE Bcl-2 G101V turned out to be 6.47.
`COC[C@@H]1Cc2ccccc2CN1C(=O)c1cc2c(cc1-c1cc(C(=O)N(c3ccc(O)cc3)c3cc(C#N)n(C)c3C)c(C)n1C)CCN(C(=O)Cc1ccc(OCCC3CCOCC3)cc1F)C2` [Example 52, N-(5-cyano-1,2-dimethylpyrrol-3-yl)-5-[2-(2-{2-fluoro-4-[2-(oxan-4-yl)ethoxy]phenyl}acetyl)-7-{[(3S)-3-(methoxymethyl)-3,4-dihydro-1H-isoquinolin-2-yl]carbonyl}-3,4-dihydro-1H-isoquinolin-6-yl]-N-(4-hydroxyphenyl)-1,2-dimethylpyrrole-3-carboxamide]: the IC50 in the experiment with KMS-12-PE Bcl-2 WT (Homo sapiens, KMS-12-PE) was 0.0034 µM; with KMS12PE Bcl2 D103E, 1.86 nM; in the experiment on KMS-12-PE Bcl-2 G101V (Homo sapiens, KMS-12-PE), 0.0139 µM. Also, the “Ratio (G101V/WT)” value in the experiment with KMS-12-PE Bcl-2 G101V amounted to 4.08.
In the case of `Cc1c(N(C(=O)c2cc(-c3cc4c(cc3C(=O)N3Cc5ccccc5C[C@H]3CN3CCCCC3)CN(C(=O)Cc3ccc(OCCN5CCOCC5)cc3F)CC4)n(C)c2C)c2ccc(O)cc2)cc(C#N)n1C` [Example 43, N-(5-cyano-1,2-dimethylpyrrol-3-yl)-5-[2-(2-{2-fluoro-4-[2-(morpholin-4-yl)ethoxy]phenyl}acetyl)-7-{[(3S)-3-(piperidin-1-ylmethyl)-3,4-dihydro-1H-isoquinolin-2-yl]carbonyl}-3,4-dihydro-1H-isoquinolin-6-yl]-N-(4-hydroxyphenyl)-1,2-dimethylpyrrole-3-carboxamide], the figures for the IC50 in the experiment with KMS-12-PE Bcl-2 WT, in the experiment on KMS12PE Bcl2 D103E and in the experiment on KMS-12-PE Bcl-2 G101V were 0.0048 µM, 1.44 nM and 0.0232 µM, respectively. Further, in the experiment on KMS-12-PE Bcl-2 G101V, the “Ratio (G101V/WT)” value was determined as 4.82.
For the compound `Cc1c(C(=O)N(c2ccc(O)cc2)c2cc(C#N)n(C(F)F)c2C)cc(-c2cc3c(cc2C(=O)N2Cc4ccccc4C[C@H]2CN2CCCCC2)CN(C(=O)Cc2ccc(OCCN4CCOCC4)cc2)CC3)n1C` [Example 77], the IC50 in the experiment on KMS-12-PE Bcl-2 WT (Homo sapiens, KMS-12-PE) came to 0.0084 µM; in the experiment with KMS12PE Bcl2 D103E, 4.69 nM; in the experiment on KMS-12-PE Bcl-2 G101V (Homo sapiens, KMS-12-PE) it was 0.0487 µM. Besides, the “Ratio (G101V/WT)” value in the experiment with KMS-12-PE Bcl-2 G101V came to 5.1.
Consider `Cc1c(N(C(=O)c2cc(-c3cc4c(cc3C(=O)N3Cc5ccccc5C[C@H]3C)CN(C(=O)Cc3ccc(CCN5CCC(F)(F)CC5)cc3)CC4)n(C)c2C)c2ccc(O)cc2)cc(C#N)n1C` [Example 51, N-(5-cyano-1,2-dimethylpyrrol-3-yl)-5-[2-(2-{4-[2-(4,4-difluoropiperidin-1-yl)ethyl]phenyl}acetyl)-7-{[(3R)-3-methyl-3,4-dihydro-1H-isoquinolin-2-yl]carbonyl}-3,4-dihydro-1H-isoquinolin-6-yl]-N-(4-hydroxyphenyl)-1,2-dimethylpyrrole-3-carboxamide], for which the IC50 in the experiment with KMS-12-PE Bcl-2 WT (Homo sapiens, KMS-12-PE) is 0.0068 µM; in the experiment with KMS12PE Bcl2 D103E, 2.81 nM; in the experiment with KMS-12-PE Bcl-2 G101V (Homo sapiens, KMS-12-PE) it was 0.0362 µM. In the experiment with KMS-12-PE Bcl-2 G101V, the “Ratio (G101V/WT)” value came to 5.07.
The corresponding values for `Cc1c(N(C(=O)c2cc(-c3cc4c(cc3C(=O)N3Cc5ccccc5C[C@H]3C)CN(C(=O)Cc3ccc(OCCN5CCOCC5)cc3)CC4)n(C)c2C)c2ccc(O)cc2)cc(C#N)n1C` [Example 21, N-(5-cyano-1,2-dimethyl-1H-pyrrol-3-yl)-N-(4-hydroxyphenyl)-1,2-dimethyl-5-{7-[(3R)-3-methyl-1,2,3,4-tetrahydroisoquinoline-2-carbonyl]-2-(2-{4-[2-(morpholin-4-yl)ethoxy]phenyl}acetyl)-1,2,3,4-tetrahydroisoquinolin-6-yl}-1H-pyrrole-3-carboxamide] are 0.0057 µM, 2.36 nM, 0.023 µM and 4.02.
`Cc1c(C(=O)N(c2ccc(O)cc2)c2cc(C#N)n(C(F)F)c2C)cc(-c2cc3c(cc2C(=O)N2Cc4ccccc4C[C@H]2CN2CCCCC2)CN(C(=O)Cc2ccc(OCCN4CCOCC4)cc2F)CC3)n1C` [Example 78, N-[5-cyano-1-(difluoromethyl)-2-methylpyrrol-3-yl]-5-[2-(2-{2-fluoro-4-[2-(morpholin-4-yl)ethoxy]phenyl}acetyl)-7-{[(3S)-3-(piperidin-1-ylmethyl)-3,4-dihydro-1H-isoquinolin-2-yl]carbonyl}-3,4-dihydro-1H-isoquinolin-6-yl]-N-(4-hydroxyphenyl)-1,2-dimethylpyrrole-3-carboxamide]: the IC50 with KMS-12-PE Bcl-2 WT (Homo sapiens, KMS-12-PE) came to 0.005 µM; in the experiment on KMS12PE Bcl2 D103E it was 1.18 nM; in the experiment with KMS-12-PE Bcl-2 G101V (Homo sapiens, KMS-12-PE), 0.0299 µM. In addition, the “Ratio (G101V/WT)” value with KMS-12-PE Bcl-2 G101V was found to be 5.98.
Consider `Cc1c(N(C(=O)c2cc(-c3cc4c(cc3C(=O)N3Cc5ccccc5C[C@H]3CN3CCC[C@H](C)C3)CN(C(=O)Cc3ccc(OCCN5CCOCC5)cc3F)CC4)n(C)c2C)c2ccc(O)cc2)cc(C#N)n1C` [Example 107], for which the IC50 was 0.0034 µM with KMS-12-PE Bcl-2 WT (Homo sapiens, KMS-12-PE); 1.22 nM in the experiment on KMS12PE Bcl2 D103E; 0.0166 µM in the experiment with KMS-12-PE Bcl-2 G101V (Homo sapiens, KMS-12-PE). Moreover, the “Ratio (G101V/WT)” value with KMS-12-PE Bcl-2 G101V was 4.47.
Take `Cc1c(N(C(=O)c2cc(-c3cc4c(cc3C(=O)N3Cc5ccccc5C[C@H]3C)CN(C(=O)Cc3ccc(OCCN5CCC(F)CC5)cc3)CC4)n(C)c2C)c2ccc(O)cc2)cc(C#N)n1C` [Example 53, N-(5-cyano-1,2-dimethyl-1H-pyrrol-3-yl)-5-[2-(2-{4-[2-(4-fluoropiperidin-1-yl)ethoxy]phenyl}acetyl)-7-[(3R)-3-methyl-1,2,3,4-tetrahydroisoquinoline-2-carbonyl]-1,2,3,4-tetrahydroisoquinolin-6-yl]-N-(4-hydroxyphenyl)-1,2-dimethyl-1H-pyrrole-3-carboxamide]: the IC50 was determined as 0.0072 µM in the experiment with KMS-12-PE Bcl-2 WT (Homo sapiens, KMS-12-PE); 2.76 nM in the experiment on KMS12PE Bcl2 D103E; 0.0337 µM in the experiment with KMS-12-PE Bcl-2 G101V (Homo sapiens, KMS-12-PE). Also, the “Ratio (G101V/WT)” value with KMS-12-PE Bcl-2 G101V is listed as 5.12.
`Cc1c(N(C(=O)c2cc(-c3cc4c(cc3C(=O)N3Cc5ccccc5C[C@H]3C)CN(C(=O)Cc3ccc(OCCC5CCOCC5)cc3)CC4)n(C)c2C)c2ccc(O)cc2)cc(C#N)n1C` [Example 27, N-(5-cyano-1,2-dimethyl-1H-pyrrol-3-yl)-N-(4-hydroxyphenyl)-1,2-dimethyl-5-{7-[(3R)-3-methyl-1,2,3,4-tetrahydroisoquinoline-2-carbonyl]-2-(2-{4-[2-(oxan-4-yl)ethoxy]phenyl}acetyl)-1,2,3,4-tetrahydroisoquinolin-6-yl}-1H-pyrrole-3-carboxamide]: the IC50 worked out at 0.0037 µM in the experiment with KMS-12-PE Bcl-2 WT (Homo sapiens, KMS-12-PE); 1.44 nM in the experiment on KMS12PE Bcl2 D103E; 0.0143 µM in the experiment with KMS-12-PE Bcl-2 G101V (Homo sapiens, KMS-12-PE). The “Ratio (G101V/WT)” value in the experiment on KMS-12-PE Bcl-2 G101V is on record as 4.23.
Consider `Cc1c(N(C(=O)c2cc(-c3cc4c(cc3C(=O)N3Cc5ccccc5C[C@H]3CN3CCCCC3)CN(C(=O)Cc3ccc(OCCC5CCOCC5)cc3)CC4)n(C)c2C)c2ccc(O)cc2)cc(C#N)n1C` [Example 66, N-(5-cyano-1,2-dimethylpyrrol-3-yl)-N-(4-hydroxyphenyl)-1,2-dimethyl-5-[2-(2-{4-[2-(oxan-4-yl)ethoxy]phenyl}acetyl)-7-{[(3S)-3-(piperidin-1-ylmethyl)-3,4-dihydro-1H-isoquinolin-2-yl]carbonyl}-3,4-dihydro-1H-isoquinolin-6-yl]pyrrole-3-carboxamide], for which the IC50 in the experiment with KMS-12-PE Bcl-2 WT (Homo sapiens, KMS-12-PE) was determined as 0.006 µM; with KMS12PE Bcl2 D103E, 1.89 nM; with KMS-12-PE Bcl-2 G101V (Homo sapiens, KMS-12-PE), 0.033 µM. Also, the “Ratio (G101V/WT)” value with KMS-12-PE Bcl-2 G101V turned out to be 5.46.
The corresponding values for `Cc1c(N(C(=O)c2cc(-c3cc4c(cc3C(=O)N3Cc5ccccc5C[C@H]3C)CN(C(=O)Cc3ccc(OCCN5CCSCC5)cc3)CC4)n(C)c2C)c2ccc(O)cc2)cc(C#N)n1C` [Example 55, N-(5-cyano-1,2-dimethyl-1H-pyrrol-3-yl)-N-(4-hydroxyphenyl)-1,2-dimethyl-5-{7-[(3R)-3-methyl-1,2,3,4-tetrahydroisoquinoline-2-carbonyl]-2-(2-{4-[2-(thiomorpholin-4-yl)ethoxy]phenyl}acetyl)-1,2,3,4-tetrahydroisoquinolin-6-yl}-1H-pyrrole-3-carboxamide] are 0.0062 µM, 2.91 nM, 0.026 µM and 4.22.
